According to patent US10413505B1, “Pharmaceutical compositions and methods of using the same” (priority 2017, dated 2019):
Counter-ions that a name gives are not always drawn.

Test system: healthy adult subjects
Assay: Example 11 ECG (QT/QTc) crossover study
Method: This was a single-dose, partially blinded, randomized, four-period, four-treatment, crossover study in which 24 healthy adult subjects received separate single doses of cocaine topical solution (8%), cocaine topical solution (4%), placebo, and moxifloxacin HCl tablet (400 mg) in four study periods. Each subject received a different treatment in each study period. Subjects received each of the following treatments in randomized fashion during the four treatment periods: (1) Treatment A: Cocaine hydrochloride, USP, topical solution, 8%; Dose=320 mg (80 mg/mL×4 mL); (2) Treatment B: Cocaine hydrochloride, USP, topical solution, 4%; Dose=160 mg (40 mg/mL×4 mL); (3) Treatment C: Placebo; and (4) Treatment D: AVELOX® (moxifloxacin hydrochloride); Dose=400 mg (1×400 mg tablet).
Treatments A, B, and C were blinded, while Treatment D was open label. Each drug administration was separated by a washout period of at least 4 days. […] Moxifloxacin HCl was orally administered along with approximately 240 mL (8 fl oz) of room temperature water.
A 25-hour continuous 12-lead ECG recording was performed on Day 1, starting 1 hour before dosing. At the designated time points, up to 10 replicate ECGs were extracted and intervals were measured using the High Precision QT technique. […] During protocol-specified ECG extraction windows, 10-second digital 12-lead ECG tracings were extracted from continuous recordings (preceded by a 10-minute supine rest period) at the following time points: predose (3 time points) and 20 minutes (end of cocaine dose; immediately after pledget removal), 40 minutes, and at 1, 1.25, 1.5, 2, 2.5, 3, 4, 6, 8, 12, and 24 hours after pledget insertion/moxifloxacin dosing.
The primary ECG endpoint was ΔQTcF. ΔQTcF is the QTc corrected for heart rate by the Fridericia method. The term “QTc”, as used herein, refers to the duration of the QT interval adjusted for the patient's heart rate.
The secondary ECG endpoints were: change-from-baseline heart rate (“HR”), time from beginning of the P-wave to the beginning of the next QRS complex (“PR”), deflections in the tracing of the electrocardiogram comprising the Q, R, and S waves that represent depolarization of the ventricles (“QRS”), time elapsed between two consecutive R waves (“RR”), and measure of the time in the tracing of the electrocardiogram between the start of the Q-wave and the end of the T-wave (“QT”); and T-wave morphological changes.

[1] = 400 mg, 20 min post-dose, QT/QTc Population
[2] = 400 mg, 40 min post-dose, QT/QTc Population
[3] = 400 mg, 1 hour post-dose, QT/QTc Population
[4] = 400 mg, 1.25 hour post-dose, QT/QTc Population
[5] = 400 mg, 1.5 hour post-dose, QT/QTc Population
[6] = 400 mg, 2 hours post-dose, QT/QTc Population
[7] = 400 mg, 3 hours post-dose, QT/QTc Population
[8] = 400 mg, 4 hours post-dose, QT/QTc Population
[9] = 400 mg, 6 hours post-dose, QT/QTc Population
[10] = 400 mg, 8 hours post-dose, QT/QTc Population
[11] = 400 mg, 12 hours post-dose, QT/QTc Population
[12] = 400 mg, 24 hours post-dose, QT/QTc Population
[13] = 400 mg, […] post-dose, QT/QTc Population
[14] = 20 min post-dose, QT/QTc Population
[15] = 40 min post-dose, QT/QTc Population
[16] = 1 hour post-dose, QT/QTc Population
[17] = 1.25 hour post-dose, QT/QTc Population
[18] = 1.5 hour post-dose, QT/QTc Population
[19] = 2 hours post-dose, QT/QTc Population
[20] = 3 hours post-dose, QT/QTc Population
[21] = 4 hours post-dose, QT/QTc Population
[22] = 6 hours post-dose, QT/QTc Population
[23] = 8 hours post-dose, QT/QTc Population
[24] = 12 hours post-dose, QT/QTc Population
[25] = 24 hours post-dose, QT/QTc Population
[26] = […] post-dose, QT/QTc Population

COc1c(N2C[C@@H]3CCCN[C@@H]3C2)c(F)cc2c(=O)c(C(=O)O)cn(C3CC3)c12 [moxifloxacin HCl, moxifloxacin hydrochloride]
peak ΔQTcF (400 mg oral, 4 hours post-dosing): 14.4 ms
peak ΔΔQTcF (400 mg oral, 4 h post-dose): 15.2 ms
ΔPR, change-from-baseline PR, LSMean [1]: 1.1 ms
ΔQRS, change-from-baseline QRS, LSMean [1]: -0.5 ms
ΔQT, change-from-baseline QT, LSMean [1]: -5.3 ms
ΔRR, change-from-baseline RR, LSMean [1]: -18.8 ms
ΔΔPR, placebo-corrected change-from-baseline PR, LSMean [1]: 2.1 ms
ΔPR, change-from-baseline PR, LSMean [2]: 1.4 ms
ΔQRS, change-from-baseline QRS, LSMean [2]: -0.5 ms
ΔQT, change-from-baseline QT, LSMean [2]: 2.2 ms
ΔRR, change-from-baseline RR, LSMean [2]: -15.8 ms
ΔΔPR, placebo-corrected change-from-baseline PR, LSMean [2]: 0.1 ms
ΔPR, change-from-baseline PR, LSMean [3]: 0.8 ms
ΔQRS, change-from-baseline QRS, LSMean [3]: -0.4 ms
ΔQT, change-from-baseline QT, LSMean [3]: 3.9 ms
ΔRR, change-from-baseline RR, LSMean [3]: -24.5 ms
ΔΔPR, placebo-corrected change-from-baseline PR, LSMean [3]: 0.1 ms
ΔPR, change-from-baseline PR, LSMean [4]: 0.5 ms
ΔQRS, change-from-baseline QRS, LSMean [4]: 0.2 ms
ΔQT, change-from-baseline QT, LSMean [4]: 3.9 ms
ΔRR, change-from-baseline RR, LSMean [4]: -35.1 ms
ΔΔPR, placebo-corrected change-from-baseline PR, LSMean [4]: -0.2 ms
ΔPR, change-from-baseline PR, LSMean [5]: -0.7 ms
ΔQRS, change-from-baseline QRS, LSMean [5]: 0.0 ms
ΔQT, change-from-baseline QT, LSMean [5]: 0.8 ms
ΔRR, change-from-baseline RR, LSMean [5]: -58.5 ms
ΔΔPR, placebo-corrected change-from-baseline PR, LSMean [5]: -1.9 ms
ΔPR, change-from-baseline PR, LSMean [6]: 0.2 ms
ΔQRS, change-from-baseline QRS, LSMean [6]: 0.0 ms
ΔQT, change-from-baseline QT, LSMean [6]: 4.2 ms
ΔRR, change-from-baseline RR, LSMean [6]: -33.8 ms
ΔΔPR, placebo-corrected change-from-baseline PR, LSMean [6]: 0.2 ms
ΔPR, change-from-baseline PR, LSMean [7]: -2.1 ms
ΔQRS, change-from-baseline QRS, LSMean [7]: 0.0 ms
ΔQT, change-from-baseline QT, LSMean [7]: 7.5 ms
ΔRR, change-from-baseline RR, LSMean [7]: -41.1 ms
ΔΔPR, placebo-corrected change-from-baseline PR, LSMean [7]: -2.1 ms
ΔPR, change-from-baseline PR, LSMean [8]: -1.5 ms
ΔQRS, change-from-baseline QRS, LSMean [8]: -0.0 ms
ΔQT, change-from-baseline QT, LSMean [8]: 6.7 ms
ΔRR, change-from-baseline RR, LSMean [8]: -121.3 ms
ΔΔPR, placebo-corrected change-from-baseline PR, LSMean [8]: -1.4 ms
ΔPR, change-from-baseline PR, LSMean [9]: -4.2 ms
ΔQRS, change-from-baseline QRS, LSMean [9]: -0.5 ms
ΔQT, change-from-baseline QT, LSMean [9]: -9.5 ms
ΔRR, change-from-baseline RR, LSMean [9]: -121.3 ms
ΔΔPR, placebo-corrected change-from-baseline PR, LSMean [9]: -2.6 ms
ΔPR, change-from-baseline PR, LSMean [10]: -5.2 ms
ΔQRS, change-from-baseline QRS, LSMean [10]: -0.5 ms
ΔQT, change-from-baseline QT, LSMean [10]: -7.6 ms
ΔRR, change-from-baseline RR, LSMean [10]: -88.8 ms
ΔΔPR, placebo-corrected change-from-baseline PR, LSMean [10]: -1.4 ms
ΔPR, change-from-baseline PR, LSMean [11]: -4.7 ms
ΔQRS, change-from-baseline QRS, LSMean [11]: -0.0 ms
ΔQT, change-from-baseline QT, LSMean [11]: -14.0 ms
ΔRR, change-from-baseline RR, LSMean [11]: -151.8 ms
ΔΔPR, placebo-corrected change-from-baseline PR, LSMean [11]: -3.9 ms
ΔPR, change-from-baseline PR, LSMean [12]: -0.9 ms
ΔQRS, change-from-baseline QRS, LSMean [12]: 0.1 ms
ΔQT, change-from-baseline QT, LSMean [12]: -6.6 ms
ΔRR, change-from-baseline RR, LSMean [12]: -65.8 ms
ΔΔPR, placebo-corrected change-from-baseline PR, LSMean [12]: 1.7 ms
T-wave morphology treatment emergent changes: Biphasic, Subject count (400 mg, QT/QTc Population): 0
T-wave morphology treatment emergent changes: Biphasic, Timepoint count (400 mg, QT/QTc Population): 0
T-wave morphology treatment emergent changes: Flat, Subject count (400 mg, QT/QTc Population): 0
T-wave morphology treatment emergent changes: Flat, Timepoint count (400 mg, QT/QTc Population): 0
T-wave morphology treatment emergent changes: Normal (−), Subject count (400 mg, QT/QTc Population): 0
T-wave morphology treatment emergent changes: Normal (−), Timepoint count (400 mg, QT/QTc Population): 0
T-wave morphology treatment emergent changes: Notched (+), Subject count (400 mg, QT/QTc Population): 0
T-wave morphology treatment emergent changes: Notched (+), Timepoint count (400 mg, QT/QTc Population): 0
T-wave morphology treatment emergent changes: Notched (−), Subject count (400 mg, QT/QTc Population): 0
T-wave morphology treatment emergent changes: Notched (−), Timepoint count (400 mg, QT/QTc Population): 0
ΔPR, change-from-baseline PR, LSMean [13]: -0.8 ms
ΔQRS, change-from-baseline QRS, LSMean [13]: -0.3 ms
ΔQT, change-from-baseline QT, LSMean [13]: 6.1 ms
ΔRR, change-from-baseline RR, LSMean [13]: -37.0 ms
ΔΔPR, placebo-corrected change-from-baseline PR, LSMean [13]: 0.5 ms
ΔHR (change-from-baseline HR), LSMean [14]: 1.0 bpm
ΔQTcF (change-from-baseline QTcF), LSMean [14]: -3.1 ms
ΔΔHR (placebo-corrected change-from-baseline HR), LSMean [14]: −4.4 bpm
ΔΔQTcF (placebo-corrected change-from-baseline QTcF), LSMean [14]: -0.1 ms
ΔHR (change-from-baseline HR), LSMean [15]: 1.3 bpm
ΔQTcF (change-from-baseline QTcF), LSMean [15]: 4.4 ms
ΔΔHR (placebo-corrected change-from-baseline HR), LSMean [15]: 0.4 bpm
ΔΔQTcF (placebo-corrected change-from-baseline QTcF), LSMean [15]: 5.4 ms
ΔHR (change-from-baseline HR), LSMean [16]: 1.8 bpm
ΔQTcF (change-from-baseline QTcF), LSMean [16]: 7.4 ms
ΔΔHR (placebo-corrected change-from-baseline HR), LSMean [16]: 1.7 bpm
ΔΔQTcF (placebo-corrected change-from-baseline QTcF), LSMean [16]: 7.8 ms
ΔHR (change-from-baseline HR), LSMean [17]: 2.6 bpm
ΔQTcF (change-from-baseline QTcF), LSMean [17]: 9.1 ms
ΔΔHR (placebo-corrected change-from-baseline HR), LSMean [17]: 2.7 bpm
ΔΔQTcF (placebo-corrected change-from-baseline QTcF), LSMean [17]: 8.7 ms
ΔHR (change-from-baseline HR), LSMean [18]: 3.9 bpm
ΔQTcF (change-from-baseline QTcF), LSMean [18]: 8.4 ms
ΔΔHR (placebo-corrected change-from-baseline HR), LSMean [18]: 3.8 bpm
ΔΔQTcF (placebo-corrected change-from-baseline QTcF), LSMean [18]: 7.9 ms
ΔHR (change-from-baseline HR), LSMean [19]: 2.3 bpm
ΔQTcF (change-from-baseline QTcF), LSMean [19]: 9.0 ms
ΔΔHR (placebo-corrected change-from-baseline HR), LSMean [19]: 3.1 bpm
ΔΔQTcF (placebo-corrected change-from-baseline QTcF), LSMean [19]: 8.9 ms
ΔHR (change-from-baseline HR), LSMean [20]: 2.6 bpm
ΔQTcF (change-from-baseline QTcF), LSMean [20]: 13.2 ms
ΔΔHR (placebo-corrected change-from-baseline HR), LSMean [20]: 2.5 bpm
ΔΔQTcF (placebo-corrected change-from-baseline QTcF), LSMean [20]: 13.0 ms
ΔHR (change-from-baseline HR), LSMean [21]: 3.4 bpm
ΔQTcF (change-from-baseline QTcF), LSMean [21]: 14.4 ms
ΔΔHR (placebo-corrected change-from-baseline HR), LSMean [21]: 1.6 bpm
ΔΔQTcF (placebo-corrected change-from-baseline QTcF), LSMean [21]: 15.2 ms
ΔHR (change-from-baseline HR), LSMean [22]: 8.2 bpm
ΔQTcF (change-from-baseline QTcF), LSMean [22]: 7.2 ms
ΔΔHR (placebo-corrected change-from-baseline HR), LSMean [22]: 2.5 bpm
ΔΔQTcF (placebo-corrected change-from-baseline QTcF), LSMean [22]: 10.9 ms
ΔHR (change-from-baseline HR), LSMean [23]: 5.7 bpm
ΔQTcF (change-from-baseline QTcF), LSMean [23]: 4.4 ms
ΔΔHR (placebo-corrected change-from-baseline HR), LSMean [23]: 1.6 bpm
ΔΔQTcF (placebo-corrected change-from-baseline QTcF), LSMean [23]: 11.5 ms
ΔHR (change-from-baseline HR), LSMean [24]: 10.7 bpm
ΔQTcF (change-from-baseline QTcF), LSMean [24]: 7.3 ms
ΔΔHR (placebo-corrected change-from-baseline HR), LSMean [24]: 1.5 bpm
ΔΔQTcF (placebo-corrected change-from-baseline QTcF), LSMean [24]: 9.6 ms
ΔHR (change-from-baseline HR), LSMean [25]: 4.2 bpm
ΔQTcF (change-from-baseline QTcF), LSMean [25]: 2.4 ms
ΔΔHR (placebo-corrected change-from-baseline HR), LSMean [25]: −0.0 bpm
ΔΔQTcF (placebo-corrected change-from-baseline QTcF), LSMean [25]: 7.5 ms
ΔHR (change-from-baseline HR), LSMean [26]: 2.6 bpm
ΔQTcF (change-from-baseline QTcF), LSMean [26]: 11.5 ms
ΔΔHR (placebo-corrected change-from-baseline HR), LSMean [26]: 0.9 bpm
ΔΔQTcF (placebo-corrected change-from-baseline QTcF), LSMean [26]: 9.8 ms
